We go through eleven molecules from patent publication US12459951B2, “Compounds that interact with RAS superfamily proteins for treatment of cancers, inflammatory diseases, rasopathies, and fibrotic disease” (SHY Therapeutics, LLC, priority 2022, dated 2025).

Structures are written as SMILES.

Test [1] has as its system Akt phosphorylation. The test is described as follows: Akt Phosphorylation Assay (western blot), Panc-1. It counts as cell-based, human. Particulars: at 10 μM, * = activation. The method, boiled down: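 Panc-1 (KRas G12D) cells were treated with compound at 10 μM final (0.3% DMSO) for 6 h at 37 °C, or with serial dilutions for IC50. Cells were either serum-starved overnight in 0.5% FBS and then stimulated with 1.5 ng/ml EGF for 15 min, or kept in 10% FBS without stimulation. Akt Ser473 phosphorylation in lysates was read by western blot.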
For orientation: Immunoblotting shows a protein as a band on a membrane.

Test [2] concerns TNF-alpha. As to the kind of experiment: TNF-alpha Quantification Assay (ELISA), LPS-stimulated RAW 264.7. It is filed as cell-based. To be noted: Mus musculus, RAW264.7; at 10 μM; read-out: TNFα: % inh. Background: An ELISA detects its analyte on a solid surface through an enzyme-linked reagent.
Test [3] concerns IL6. The test is described as follows: IL-6 Quantification Assay (ELISA), LPS-stimulated RAW 264.7. It counts as cell-based. Details: inhibition: dose or concentration left out as unconfirmed. To be noted: Mus musculus, RAW264.7; read-out: IL-6: % inh.
Test [4] has as its target T1, Rac-1 (Homo sapiens, UniProt P63000).
T1 construct: made in house
As to the kind of experiment: Ras GTP Binding Domain Inhibition Assay (Ras Superfamily Assay). To be noted: read-out: Rac-1: % inh. The method, boiled down:
(§1)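 His-tagged GTPases immobilised on nickel-coated plates, pre-incubated with compound (20 μM single point, or serial dilution for IC50) 3 h at room temperature, with or without 10-30 μg/mL Sos (residues 556-1049) in the final hour. Bound Cy3- or Cy5-GTP (100 nM, 45 min) measured by fluorescence after washing.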

Test [5] deals with KRas wild type. Described as above. Particulars: for KRas wild type + SOS: % inh.: with SOS; for KRas wild type: % inh.: without SOS. The method, boiled down:
as §1

The subject of test [6] is KRas G12D mutant. Described as above. To be noted: for KRas G12D mutant + SOS: % inh.: with SOS; for KRas G12D mutant: % inh.: without SOS. In outline:
as §1

With `COc1cccc(-c2cn3nc(-c4nccn4C)nc(O)c3c2C)c1Cl` [Compound 15, 6-(2-Chloro-3-methoxyphenyl)-5-methyl-2-(1-methyl-1H-imidazol-2-yl)pyrrolo[2,1-f][1,2,4]triazin-4-ol], the “% inh of Akt phosphorylation in Panc-1” value in test [1] was 0 (0% inhibition). The inhibition at 10 µM in test [2] worked out at 0%. Further, in test [3], the inhibition was 50 to 74%. Moreover, in test [4], the inhibition at 20 µM was found to be 0%. Besides, in test [5] (20 μM compound), the “KRas wild type + SOS: % inh.” value was “A (A = 1-25% inhibition)” and the “KRas wild type: % inh.” value was “A (A = 1-25% inhibition)”. In test [6] (20 μM compound), the “KRas G12D mutant + SOS: % inh.” value is 0 (0 = 0% inhibition) and the “KRas G12D mutant: % inh.” value is on record as “A (A = 1-25% inhibition)”.

For the molecule `CO[C@H]1C[C@H](Nc2nc(-c3nccn3C)nn3cc(-c4ccc(OCCN)cc4)c(-c4ccccc4)c23)C1.Cl` [Compound 208, 6-(4-(2-Aminoethoxy)phenyl)-N-((1r,3r)-3-methoxycyclobutyl)-2-(1-methyl-1H-imidazol-2-yl)-5-phenylpyrrolo[2,1-f][1,2,4]triazin-4-amine hydrochloride salt], the “% inh of Akt phosphorylation in Panc-1” value in test [1] is given as “D* (85-100% activation)”. Also, the inhibition at 10 µM in test [2] is 25 to 49%. Besides, the inhibition in test [3] is 75 to 100%. The inhibition at 20 µM in test [4] lay within 26 to 49%. In test [5] (at 20 μM), the “KRas wild type + SOS: % inh.” value is given as “C (C = 50-75% inhibition)” and the “KRas wild type: % inh.” value is recorded as “B (B = 26-49% inhibition)”. In test [6] (at 20 μM), the “KRas G12D mutant + SOS: % inh.” value is “C (C = 50-75% inhibition)” and the “KRas G12D mutant: % inh.” value is listed as “B (B = 26-49% inhibition)”.

Turning to `COC1CCCN(c2nc(-c3ccccn3)nn3cc(-c4ccn(C(C)C)n4)c(C)c23)C1` (racemic) [Compound 12, rac 6-(1-Isopropyl-1H-pyrazol-3-yl)-4-(3-methoxypiperidin-1-yl)-5-methyl-2-(pyridin-2-yl)pyrrolo[2,1-f][1,2,4]triazine], the “% inh of Akt phosphorylation in Panc-1” value in test [1] is 0 (0% inhibition). In addition, the inhibition at 10 µM in test [2] worked out at 0%. Also, in test [3], the inhibition fell in the range of 25 to 49%. In test [4], the inhibition at 20 µM is 0%. For the same molecule, in test [5] (20 μM compound), the “KRas wild type + SOS: % inh.” value is 0 (0 = 0% inhibition) and the “KRas wild type: % inh.” value is reported as 0 (0 = 0% inhibition). Also, in test [6] (20 μM compound), the “KRas G12D mutant + SOS: % inh.” value is given as 0 (0 = 0% inhibition) and the “KRas G12D mutant: % inh.” value was “A (A = 1-25% inhibition)”.

`COc1cc(Nc2nc(-c3ccccn3)nn3cc(-c4ccn(C(C)C)n4)c(C)c23)ncn1` [Compound 13, 6-(1-Isopropyl-1H-pyrazol-3-yl)-N-(6-methoxypyrimidin-4-yl)-5-methyl-2-(pyridin-2-yl)pyrrolo[2,1-f][1,2,4]triazin-4-amine]: in test [1], the “% inh of Akt phosphorylation in Panc-1” value is 0 (0% inhibition). Further, in test [2], the inhibition at 10 µM worked out at 0%. For the same molecule, the inhibition in test [3] lay within 75 to 100%. Moreover, the inhibition at 20 µM in test [4] turned out to be 0%. Also, in test [5] (20 μM compound), the “KRas wild type + SOS: % inh.” value is 0 (0 = 0% inhibition) and the “KRas wild type: % inh.” value is recorded as “A (A = 1-25% inhibition)”. In addition, in test [6] (20 μM compound), the “KRas G12D mutant + SOS: % inh.” value is 0 (0 = 0% inhibition) and the “KRas G12D mutant: % inh.” value was “A (A = 1-25% inhibition)”.

In the case of `COc1ccnc(Nc2nc(-c3nccn3C)nn3cc(-c4cccnc4)c(-c4ccccc4)c23)c1` [Compound 196, N-(4-Methoxypyridin-2-yl)-2-(1-methyl-1H-imidazol-2-yl)-5-phenyl-6-(pyridin-3-yl)pyrrolo[2,1-f][1,2,4]triazin-4-amine], the “% inh of Akt phosphorylation in Panc-1” value in test [1] is reported as “D* (85-100% activation)”. The inhibition at 10 µM in test [2] was in the range of 75 to 100%. For the same molecule, in test [3], the inhibition fell in the range of 75 to 100%. Besides, in test [4], the inhibition at 20 µM was 76 to 100%. Besides, in test [5] (at 20 μM), the “KRas wild type + SOS: % inh.” value is “D (D = 76-100% inhibition)” and the “KRas wild type: % inh.” value is “D (D = 76-100% inhibition)”. In addition, in test [6] (at 20 μM), the “KRas G12D mutant + SOS: % inh.” value is “D (D = 76-100% inhibition)” and the “KRas G12D mutant: % inh.” value was “D (D = 76-100% inhibition)”.

For the molecule `CO[C@H]1C[C@H](Nc2nc(-c3nccn3C)nn3cc(-c4cccnc4)c(-c4ccccc4)c23)C1` [Compound 192, N-((1r,3r)-3-Methoxycyclobutyl)-2-(1-methyl-1H-imidazol-2-yl)-5-phenyl-6-(pyridin-3-yl)pyrrolo[2,1-f][1,2,4]triazin-4-amine], the “% inh of Akt phosphorylation in Panc-1” value in test [1] is “D* (85-100% activation)”. In test [2], the inhibition at 10 µM is 25 to 49%. The inhibition in test [3] lay within 75 to 100%. The inhibition at 20 µM in test [4] fell in the range of 1 to 25%. For the same molecule, in test [5] (at 20 μM), the “KRas wild type + SOS: % inh.” value was “B (B = 26-49% inhibition)” and the “KRas wild type: % inh.” value is “B (B = 26-49% inhibition)”. For the same molecule, in test [6] (at 20 μM), the “KRas G12D mutant + SOS: % inh.” value is given as “B (B = 26-49% inhibition)” and the “KRas G12D mutant: % inh.” value was “B (B = 26-49% inhibition)”.

Regarding `CO[C@H]1C[C@H](Nc2nc(-c3nccn3C)nn3cc(-c4cccnc4)c(-c4cccnc4)c23)C1` [Compound 171, N-((1r,3r)-3-Methoxycyclobutyl)-2-(1-methyl-1H-imidazol-2-yl)-5,6-di(pyridin-3-yl)pyrrolo[2,1-f][1,2,4]triazin-4-amine], the “% inh of Akt phosphorylation in Panc-1” value in test [1] is reported as “B (26-49% inhibition)”. Moreover, the inhibition at 10 µM in test [2] amounted to 0%. In test [3], the inhibition came out at 0%. The inhibition at 20 µM in test [4] fell in the range of 1 to 25%. Moreover, in test [5] (20 μM compound), the “KRas wild type + SOS: % inh.” value was “B (B = 26-49% inhibition)” and the “KRas wild type: % inh.” value is listed as “A (A = 1-25% inhibition)”. For the same molecule, in test [6] (20 μM compound), the “KRas G12D mutant + SOS: % inh.” value is recorded as “A (A = 1-25% inhibition)” and the “KRas G12D mutant: % inh.” value was “A (A = 1-25% inhibition)”.

Consider `COc1ccc(N(C)c2nc(-c3nccn3C)nn3cc(-c4ccn(C)n4)c(C)c23)nc1` [Compound 225, N-(5-Methoxypyridin-2-yl)-N,5-dimethyl-2-(1-methyl-1H-imidazol-2-yl)-6-(1-methyl-1H-pyrazol-3-yl)pyrrolo[2,1-f][1,2,4]triazin-4-amine], for which the “% inh of Akt phosphorylation in Panc-1” value in test [1] is listed as “A* (1-25% activation)”. For the same molecule, the inhibition at 10 µM in test [2] is 0%. Besides, the inhibition in test [3] turned out to be 0%. The inhibition at 20 µM in test [4] is 1 to 25%. In test [5] (at 20 μM), the “KRas wild type + SOS: % inh.” value is recorded as “A (A = 1-25% inhibition)” and the “KRas wild type: % inh.” value was “A (A = 1-25% inhibition)”. In test [6] (at 20 μM), the “KRas G12D mutant + SOS: % inh.” value is “A (A = 1-25% inhibition)” and the “KRas G12D mutant: % inh.” value is “B (B = 26-49% inhibition)”.

Turning to `COc1ccnc(Nc2nc(-c3nccn3C)nn3cc(-c4ccn(C)n4)c(C(=O)NCC(F)(F)F)c23)c1` [Compound 174, 4-((4-Methoxypyridin-2-yl)amino)-2-(1-methyl-1H-imidazol-2-yl)-6-(1-methyl-1H-pyrazol-3-yl)-N-(2,2,2-trifluoro-ethyl)pyrrolo[2,1-f][1,2,4]triazine-5-carboxamide], the “% inh of Akt phosphorylation in Panc-1” value in test [1] was “D* (85-100% activation)”. In addition, in test [2], the inhibition at 10 µM stood at 0%. The inhibition in test [3] was 1 to 24%. Moreover, in test [4], the inhibition at 20 µM lay within 50 to 75%. Moreover, in test [5] (20 μM compound), the “KRas wild type + SOS: % inh.” value is “B (B = 26-49% inhibition)” and the “KRas wild type: % inh.” value is on record as “B (B = 26-49% inhibition)”. In test [6] (20 μM compound), the “KRas G12D mutant + SOS: % inh.” value is on record as “B (B = 26-49% inhibition)” and the “KRas G12D mutant: % inh.” value is given as “B (B = 26-49% inhibition)”.

Turning to `CO[C@H]1C[C@@H](Nc2nc(-c3nccn3C)nn3cc(-c4cccnc4)c(-c4ccccc4)c23)C1` [Compound 191, N-((1s,3s)-3-Methoxycyclobutyl)-2-(1-methyl-1H-imidazol-2-yl)-5-phenyl-6-(pyridin-3-yl)pyrrolo[2,1-f][1,2,4]triazin-4-amine], the “% inh of Akt phosphorylation in Panc-1” value in test [1] is “D* (85-100% activation)”. Also, in test [2], the inhibition at 10 µM was in the range of 1 to 24%. Further, the inhibition in test [3] lay in the range of 50 to 74%. Besides, in test [4], the inhibition at 20 µM lay in the range of 1 to 25%. In test [5] (at 20 μM), the “KRas wild type + SOS: % inh.” value was “B (B = 26-49% inhibition)” and the “KRas wild type: % inh.” value was “A (A = 1-25% inhibition)”. Besides, in test [6] (at 20 μM), the “KRas G12D mutant + SOS: % inh.” value is “B (B = 26-49% inhibition)” and the “KRas G12D mutant: % inh.” value was “B (B = 26-49% inhibition)”.

In the case of `COc1ccc(Nc2nc(-c3nccn3C)nn3cc(-c4ccn(C)n4)c(C)c23)nc1` [Compound 224, N-(5-Methoxypyridin-2-yl)-5-methyl-2-(1-methyl-1H-imidazol-2-yl)-6-(1-methyl-1H-pyrazol-3-yl)pyrrolo[2,1-f][1,2,4]triazin-4-amine], the “% inh of Akt phosphorylation in Panc-1” value in test [1] is “D* (85-100% activation)”. Further, the inhibition at 10 µM in test [2] fell in the range of 1 to 24%. Also, the inhibition in test [3] lay in the range of 50 to 74%. Also, the inhibition at 20 µM in test [4] was in the range of 76 to 100%. Also, in test [5] (at 20 μM), the “KRas wild type + SOS: % inh.” value is listed as “D (D = 76-100% inhibition)” and the “KRas wild type: % inh.” value is reported as “D (D = 76-100% inhibition)”. In test [6] (at 20 μM), the “KRas G12D mutant + SOS: % inh.” value is “D (D = 76-100% inhibition)” and the “KRas G12D mutant: % inh.” value is reported as “D (D = 76-100% inhibition)”.
